Test results published in ChEMBL document CHEMBL3739277, “Design, synthesis, and antibacterial evaluation of novel azolylthioether quinolones as MRSA DNA intercalators” (2015).
Converted amounts (≈) assume the structure as drawn.

Tested on: Saccharomyces cerevisiae
Test: Antifungal activity against Saccharomyces cerevisiae ATCC9763 assessed as growth inhibition incubated at 35 degC for 24 hrs by micro broth dilution method
Type: functional
Conditions: ATCC9763, 24 h

SMILES | MIC80 [µg/mL]
O=C(O)c1cn(C2CC2)c2c(Cl)c(N3CCC(NCC4CO4)C3)c(F)cc2c1=O (configuration not stated) | 0.25 (≈ 0.593 µM)
CCn1cc(C(=O)O)c(=O)c2cc(F)c(N3CCN(CC(O)CSc4ncn(Cc5ccc(Cl)cc5Cl)n4)CC3)cc21 (configuration not stated) | 16 (≈ 25.2 µM)
Sc1ncn(Cc2ccc(Cl)cc2Cl)n1 | 512 (≈ 1970 µM)

Tested on: Cyberlindnera jadinii
Test: Antifungal activity against Candida utilis ATCC9950 assessed as growth inhibition incubated at 35 degC for 24 hrs by micro broth dilution method
Type: functional
Conditions: Williopsis jadinii, ATCC9950, 24 h

SMILES | MIC80 [µg/mL]
O=C(O)c1cn(C2CC2)c2c(Cl)c(N3CCC(NCC4CO4)C3)c(F)cc2c1=O (configuration not stated) | 4 (≈ 9.48 µM)
CCn1cc(C(=O)O)c(=O)c2cc(F)c(N3CCN(CC(O)CSc4ncn(Cc5ccc(Cl)cc5Cl)n4)CC3)cc21 (configuration not stated) | 64 (≈ 101 µM)
Sc1ncn(Cc2ccc(Cl)cc2Cl)n1 | 512 (≈ 1970 µM)

Tested on: Candida albicans
Test: Antifungal activity against Candida albicans ATCC10231 assessed as growth inhibition incubated at 35 degC for 24 hrs by micro broth dilution method
Type: functional
Conditions: ATCC10231, 24 h

SMILES | MIC80 [µg/mL]
O=C(O)c1cn(C2CC2)c2c(Cl)c(N3CCC(NCC4CO4)C3)c(F)cc2c1=O (configuration not stated) | 2 (≈ 4.74 µM)
CCn1cc(C(=O)O)c(=O)c2cc(F)c(N3CCN(CC(O)CSc4ncn(Cc5ccc(Cl)cc5Cl)n4)CC3)cc21 (configuration not stated) | 64 (≈ 101 µM)
Sc1ncn(Cc2ccc(Cl)cc2Cl)n1 | 512 (≈ 1970 µM)

Tested on: not listed separately
Test: Antibacterial activity against Eberthella typhosa ATCC14028 assessed as growth inhibition incubated at 37 degC for 24 hrs by micro broth dilution method
Type: functional
Conditions: ATCC14028, 24 h

SMILES | MIC [µg/mL]
CCn1cc(C(=O)O)c(=O)c2cc(F)c(N3CCN(CC(O)CSc4ncn(Cc5ccc(Cl)cc5Cl)n4)CC3)cc21 (configuration not stated) | 32 (≈ 50.4 µM)
Sc1ncn(Cc2ccc(Cl)cc2Cl)n1 | 256 (≈ 984 µM)

Tested on: not listed separately
Test: Antifungal activity against Candida mycoderma ATCC9888 assessed as growth inhibition incubated at 35 degC for 24 hrs by micro broth dilution method
Type: functional
Conditions: Kregervanrija fluxuum

SMILES | MIC80 [µg/mL]
O=C(O)c1cn(C2CC2)c2c(Cl)c(N3CCC(NCC4CO4)C3)c(F)cc2c1=O (configuration not stated) | 2 (≈ 4.74 µM)
CCn1cc(C(=O)O)c(=O)c2cc(F)c(N3CCN(CC(O)CSc4ncn(Cc5ccc(Cl)cc5Cl)n4)CC3)cc21 (configuration not stated) | 64 (≈ 101 µM)
Sc1ncn(Cc2ccc(Cl)cc2Cl)n1 | 128 (≈ 492 µM)

Tested on: Aspergillus flavus
Test: Antifungal activity against Aspergillus flavus ATCC204304 assessed as growth inhibition incubated at 35 degC for 24 hrs by micro broth dilution method
Type: functional
Conditions: ATCC204304, 24 h

SMILES | MIC80 [µg/mL]
O=C(O)c1cn(C2CC2)c2c(Cl)c(N3CCC(NCC4CO4)C3)c(F)cc2c1=O (configuration not stated) | 0.5 (≈ 1.19 µM)
CCn1cc(C(=O)O)c(=O)c2cc(F)c(N3CCN(CC(O)CSc4ncn(Cc5ccc(Cl)cc5Cl)n4)CC3)cc21 (configuration not stated) | 4 (≈ 6.29 µM)
Sc1ncn(Cc2ccc(Cl)cc2Cl)n1 | 256 (≈ 984 µM)

Tested on: Escherichia coli
Test: Antibacterial activity against Escherichia coli JM109 assessed as growth inhibition incubated at 37 degC for 24 hrs by micro broth dilution method
Type: functional
Conditions: JM109, 24 h

SMILES | MIC [µg/mL]
O=C(O)c1cn(C2CC2)c2c(Cl)c(N3CCC(NCC4CO4)C3)c(F)cc2c1=O (configuration not stated) | 0.5 (≈ 1.19 µM)
CCn1cc(C(=O)O)c(=O)c2cc(F)c(N3CCN(CC(O)CSc4ncn(Cc5ccc(Cl)cc5Cl)n4)CC3)cc21 (configuration not stated) | 8 (≈ 12.6 µM)
Sc1ncn(Cc2ccc(Cl)cc2Cl)n1 | 256 (≈ 984 µM)

Tested on: Staphylococcus aureus
Test: Antibacterial activity against methicillin resistant Staphylococcus aureus N315 assessed as growth inhibition incubated at 37 degC for 24 hrs by micro broth dilution method
Type: functional
Conditions: N315, 24 h

SMILES | MIC [µg/mL]
CCn1cc(C(=O)O)c(=O)c2cc(F)c(N3CCN(CC(O)CSc4ncn(Cc5ccc(Cl)cc5Cl)n4)CC3)cc21 (configuration not stated) | 2 (≈ 3.15 µM)
Sc1ncn(Cc2ccc(Cl)cc2Cl)n1 | 128 (≈ 492 µM)

Tested on: Staphylococcus aureus
Test: Antibacterial activity against Staphylococcus aureus ATCC25923 assessed as growth inhibition incubated at 37 degC for 24 hrs by micro broth dilution method
Type: functional
Conditions: ATCC25923, 24 h

SMILES | MIC [µg/mL]
O=C(O)c1cn(C2CC2)c2c(Cl)c(N3CCC(NCC4CO4)C3)c(F)cc2c1=O (configuration not stated) | 0.5 (≈ 1.19 µM)
CCn1cc(C(=O)O)c(=O)c2cc(F)c(N3CCN(CC(O)CSc4ncn(Cc5ccc(Cl)cc5Cl)n4)CC3)cc21 (configuration not stated) | 2 (≈ 3.15 µM)
Sc1ncn(Cc2ccc(Cl)cc2Cl)n1 | 512 (≈ 1970 µM)

Tested on: Micrococcus luteus
Test: Antibacterial activity against Micrococcus luteus ATCC4698 assessed as growth inhibition incubated at 37 degC for 24 hrs by micro broth dilution method
Type: functional
Conditions: ATCC4698, 24 h

SMILES | MIC [µg/mL]
O=C(O)c1cn(C2CC2)c2c(Cl)c(N3CCC(NCC4CO4)C3)c(F)cc2c1=O (configuration not stated) | 0.25 (≈ 0.593 µM)
CCn1cc(C(=O)O)c(=O)c2cc(F)c(N3CCN(CC(O)CSc4ncn(Cc5ccc(Cl)cc5Cl)n4)CC3)cc21 (configuration not stated) | 64 (≈ 101 µM)
Sc1ncn(Cc2ccc(Cl)cc2Cl)n1 | 128 (≈ 492 µM)

Tested on: Bacillus subtilis
Test: Antibacterial activity against Bacillus subtilis ATCC6633 assessed as growth inhibition incubated at 37 degC for 24 hrs by micro broth dilution method
Type: functional
Conditions: ATCC6633, 24 h

SMILES | MIC [µg/mL]
O=C(O)c1cn(C2CC2)c2c(Cl)c(N3CCC(NCC4CO4)C3)c(F)cc2c1=O (configuration not stated) | 0.25 (≈ 0.593 µM)
CCn1cc(C(=O)O)c(=O)c2cc(F)c(N3CCN(CC(O)CSc4ncn(Cc5ccc(Cl)cc5Cl)n4)CC3)cc21 (configuration not stated) | 64 (≈ 101 µM)
Sc1ncn(Cc2ccc(Cl)cc2Cl)n1 | 512 (≈ 1970 µM)

Tested on: Pseudomonas aeruginosa
Test: Antibacterial activity against Pseudomonas aeruginosa ATCC27853 assessed as growth inhibition incubated at 37 degC for 24 hrs by micro broth dilution method
Type: functional
Conditions: ATCC27853, 24 h

SMILES | MIC [µg/mL]
O=C(O)c1cn(C2CC2)c2c(Cl)c(N3CCC(NCC4CO4)C3)c(F)cc2c1=O (configuration not stated) | 0.5 (≈ 1.19 µM)
CCn1cc(C(=O)O)c(=O)c2cc(F)c(N3CCN(CC(O)CSc4ncn(Cc5ccc(Cl)cc5Cl)n4)CC3)cc21 (configuration not stated) | 16 (≈ 25.2 µM)
Sc1ncn(Cc2ccc(Cl)cc2Cl)n1 | 256 (≈ 984 µM)

Tested on: not listed separately
Test: Antibacterial activity against Bacillus proteus ATCC13315 assessed as growth inhibition incubated at 37 degC for 24 hrs by micro broth dilution method
Type: functional
Conditions: ATCC13315, 24 h

SMILES | MIC [µg/mL]
O=C(O)c1cn(C2CC2)c2c(Cl)c(N3CCC(NCC4CO4)C3)c(F)cc2c1=O (configuration not stated) | 0.25 (≈ 0.593 µM)
CCn1cc(C(=O)O)c(=O)c2cc(F)c(N3CCN(CC(O)CSc4ncn(Cc5ccc(Cl)cc5Cl)n4)CC3)cc21 (configuration not stated) | 4 (≈ 6.29 µM)
Sc1ncn(Cc2ccc(Cl)cc2Cl)n1 | 512 (≈ 1970 µM)
